Measured values published in PubChem BioAssay AID208 (DTP/NCI, 2004).
Where “and” joins values, the source holds several entries; their conditions need not be identical. Equal values may be shown once. Inconclusive results are not listed.

Tested on: HT29 intrarenal xenograft, nude mice, tumor weight change
Assay: NCI In Vivo Anticancer Drug Screen. Data for tumor model HT29;CX-1 Human Adenocarcinoma (MER+) (intrarenal inoculation) in NU/NU BALB/C (nude) mice
Conditions: endpoint: mean tumor weight change, higher = larger tumour
Method: The antitumor activity of compounds was measured in mice bearing transplantable tumors. Survival or tumor size were measured and the results are expressed as the measurement made in the treated group (T) divided by the measurement made in the vehicle treated control group (C). The tumor model used in this assay is HT29;CX-1 Human Adenocarcinoma (MER+) (intrarenal inoculation) in NU/NU BALB/C (nude) mice

CC1(C)CC2(C)OC2C2(C1)N=NC(=Nc1ccccc1)O2 (centres undefined)
T/C (dose: 75.0 mg/kg/injection, schedule: Q04DX004 (sc), vehicle: saline with Tween-80): 16 % of control
T/C (dose: 150.0 mg/kg/injection, schedule: Q04DX004 (sc), vehicle: saline with Tween-80): 124 % of control
T/C (dose: 300.0 mg/kg/injection, schedule: Q04DX004 (sc), vehicle: saline with Tween-80): 89 % of control
T/C (dose: 600.0 mg/kg/injection, schedule: Q04DX004 (sc), vehicle: saline with Tween-80): 69 % of control

Cc1cnc(/C=N\NC(N)=S)c2cccc(N)c12
T/C (dose: 125.0 mg/kg/injection, schedule: Q04DX004 (ip), vehicle: saline with Tween-80): 92 % of control

CC(=O)Oc1ccc[nH]c1=O
T/C (dose: 200.0 mg/kg/injection, schedule: Q04DX004 (sc), vehicle: saline with Tween-80): 88 % of control
T/C (dose: 400.0 mg/kg/injection, schedule: Q04DX004 (sc), vehicle: saline with Tween-80): 104 % of control
T/C (dose: 800.0 mg/kg/injection, schedule: Q04DX004 (sc), vehicle: saline with Tween-80): 122 % of control

COc1cc2cc(c1Cl)N(C)C(=O)C[C@H](OC(=O)[C@H](C)N(C)C(C)=O)[C@]1(C)O[C@H]1[C@H](C)[C@@H]1C[C@@](O)(NC(=O)O1)[C@H](OC)C=C/C=C(\C)C2
T/C (dose: 25.0 micrograms/kg/injection, schedule: Q01DX010 (sc), vehicle: Klucel (hydroxypropylcellulose) (HPC)): 315 % of control
T/C (dose: 50.0 micrograms/kg/injection, schedule: Q01DX010 (sc), vehicle: Klucel (hydroxypropylcellulose) (HPC)): 118 % of control and 310 % of control

C[C@]12CC[C@H](O)CC1=CC[C@@H]1[C@@H]2CC[C@]2(C)C(=O)CC[C@@H]12
T/C (dose: 2400.0 mg/kg/injection, schedule: Q04DX004 (sc), vehicle: saline with Tween-80): 73 % of control

C[CH2][Sn]([CH2]C)([O]S(C)(=O)=O)[O]S(C)(=O)=O
T/C (dose: 6.25 mg/kg/injection, schedule: Q04DX004 (sc), vehicle: saline with Tween-80): 169 % of control
T/C (dose: 12.5 mg/kg/injection, schedule: Q04DX004 (sc), vehicle: saline with Tween-80): 107 % of control

COC(=O)[C@@]12OC[C@]34[C@H]([C@@H](O)[C@@H]1O)[C@@]1(C)CC(=O)C(O)=C(C)[C@@H]1C[C@H]3OC(=O)[C@H](OC(=O)/C=C(\C)C(C)C)[C@@H]24
T/C (dose: 0.5 mg/kg/injection, schedule: Q01DX010 (sc), vehicle: saline + alcohol): 35 % of control

O=C(O)CCCc1ccc(N(CCCl)CCCl)cc1
T/C (dose: 0.13 mg/kg/injection, schedule: Q04DX004 (ip), vehicle: Klucel (hydroxypropylcellulose) (HPC)): 70 % of control
T/C (dose: 0.2 mg/kg/injection, schedule: Q04DX004 (ip), vehicle: Klucel (hydroxypropylcellulose) (HPC)): 77 % of control
T/C (dose: 0.3 mg/kg/injection, schedule: Q04DX004 (ip), vehicle: Klucel (hydroxypropylcellulose) (HPC)): 35 % of control
T/C (dose: 40.0 mg/kg/injection, schedule: Q04DX004 (ip), vehicle: Klucel (hydroxypropylcellulose) (HPC)): 54 % of control

C[n+]1c(-c2cccc3ccccc23)c2cc(N)ccc2c2ccccc21
T/C (dose: 3.0 mg/kg/injection, schedule: Q04DX004 (sc), vehicle: saline): 119 % of control
T/C (dose: 6.0 mg/kg/injection, schedule: Q04DX004 (sc), vehicle: saline): 152 % of control
T/C (dose: 12.0 mg/kg/injection, schedule: Q04DX004 (sc), vehicle: saline): 78 % of control

Nc1nc2c(ncn2C2OC(CO)C(O)C2O)c(=O)[nH]1 (centres undefined)
T/C (dose: 225.0 mg/kg/injection, schedule: Q04DX004 (sc), vehicle: saline with Tween-80): 84 % of control
T/C (dose: 450.0 mg/kg/injection, schedule: Q04DX004 (sc), vehicle: saline with Tween-80): 96 % of control
T/C (dose: 900.0 mg/kg/injection, schedule: Q04DX004 (sc), vehicle: saline with Tween-80): 55 % of control
T/C (dose: 1800.0 mg/kg/injection, schedule: Q04DX004 (sc), vehicle: saline with Tween-80): 100 % of control

CNC1C(O)C(OC2C(N)CC(N)C(OC3OC(C(C)O)C(O)C(O)C3N)C2O)OCC1(C)O (centres undefined)
T/C (dose: 50.0 mg/kg/injection, schedule: Q04DX004 (ip), vehicle: saline): 102 % of control

COC(=O)C[C@](O)(CCC(C)(C)O)C(=O)O[C@@H]1C(OC)=C[C@]23CCCN2CCc2cc4c(cc2[C@H]13)OCO4
T/C (dose: 0.31 mg/kg/injection, schedule: Q04DX004 (sc), vehicle: saline): 68 % of control
T/C (dose: 0.63 mg/kg/injection, schedule: Q04DX004 (sc), vehicle: saline): 84 % of control
T/C (dose: 1.25 mg/kg/injection, schedule: Q04DX004 (sc), vehicle: saline): 103 % of control
T/C (dose: 2.5 mg/kg/injection, schedule: Q04DX004 (sc), vehicle: saline): 86 % of control

CC(C)CCC(=O)c1ccoc1
T/C (dose: 0.75 mg/kg/injection, schedule: Q01DX010 (ip), vehicle: saline with Tween-80): 85 % of control
T/C (dose: 1.5 mg/kg/injection, schedule: Q01DX010 (ip), vehicle: saline with Tween-80): 87 % of control
T/C (dose: 3.0 mg/kg/injection, schedule: Q01DX010 (ip), vehicle: saline with Tween-80): 75 % of control and 91 % of control
T/C (dose: 6.0 mg/kg/injection, schedule: Q01DX010 (ip), vehicle: saline with Tween-80): 74 % of control and 94 % of control
